# Test results as given in patent US20080089860A1, “Therapeutic compositions and methods useful in treating cancer” (priority 2006, published 2008).
# Tested on: TF-1 cells
# Assay: TF-1 cell proliferation assay
# Assay type: cell-based, human
# Procedure: The murine hematopoietic cell line Baf3 was maintained in RPMI 1640 medium supplemented with 10% fetal calf serum (FCS) and murine IL-3 (20 units/ml) as described previously in Damen et al., J. Biol. Chem. 270, 23402 (1995). Human myeloid cell line TF-1 was maintained in RPMI 1640 supplemented with 10% FCS and 40 ng/ml of recombinant human GM-CSF as described previously in Thomassen et al., Clin. Immunol. 95, 85 (2000). For cell proliferation assays, cells were washed in 10% FCS medium twice, resuspended in 10% FCS medium, incubated at 37° C. for 16 hours, and then cultured at 37° C. in 10% FCS medium containing various amounts of cytokines, sodium stibogluconate, or potassium antimonyl tartrate for 3-6 days as indicated. The cell numbers in proliferation assays were determined by an MTT assay or by microscopic cell counting as indicated.
smiles,measurement,setting,value
O.O.O.O.O.O.O.O.O.O=C([O-])[C@@H]1[O][Sb]2([O-])([O][Sb]34([OH])[O][C@H]([C@H](O)CO)[C@H]([O]3)[C@H](C(=O)[O-])[O]4)[O][C@H]([C@H](O)CO)[C@@H]1[O]2.[Na+].[Na+].[Na+] [sodium stibogluconate],GM-CSF-induced proliferation of TF-1 cells,"50 μg/ml, GM-CSF 5-40 ng/ml",augmented
same,effect on GM-CSF-induced cell growth,low doses 12.5-50 μg/ml,no negative effect
